Patent US20240342242A1, “COMPOSITIONS AND METHODS FOR TREATING MASTITIS” (Zoetis Services LLC, priority 2021, published 2024)

Legend:
[1] = test system: primary bovine mammary epithelial cells (pMEC); test: Cytokine production in primary bovine mammary epithelial cells, unstimulated or LPS/MPLA (TLR 4 agonist) stimulated; format: cell-based
Description: Chicken CATH2 is a host defense peptide that is naturally expressed in chicken heterophils and several tissues. […] LPS and MPLA serve as potent Toll-like Receptor 4 (TLR 4) agonists in this assay and induce high levels of proinflammatory cytokines such as interleukin 6 (IL-6) and tumor necrosis factor alpha (TNFα).

bacteria = test: Modified minimal bactericidal concentration assay in varying concentrations of milk; format: cell-based; details: as little as 10% whole and skim milk
Description: The CATH2 peptide has antibacterial activity where it causes membrane disruption and lysis of the bacterial cell. The peptide also has cytotoxic effects on eukaryotic cells at high concentrations due the high positive charge, +8, and its ability to integrate in the cell membrane, resulting in membrane disruption. To further understand the behavior of the peptide in the context of the mammary gland, the inventors investigated the antibacterial activity and cytotoxicity of the peptide in the presence of milk. […] This finding led the inventors to investigate the impact of milk protein binding on peptide activity.

Streptococcus uberis = test: S. uberis challenge study, Example 4; format: in vivo, cattle
Escherichia coli = test: E. coli intramammary challenge in lactating dairy cows, CATH2 and analogs, Example 2; format: in vivo, Holstein cows
Description: The objective of this study was to evaluate the efficacy of Cathelicidin-2 peptide analogs for reduction of incidence of clinical mastitis and severity of infection following Escherichia coli intramammary (IMM) infusion in lactating dairy cows. Healthy Holstein cows in their second or third lactation were selected based on culture negative results for mastitis pathogens and low somatic cell counts≤200,000. Enrolled animals were randomly assigned to treatment. Cows were commingled, housed and fed according to standard site procedures, and fitted with sensors to monitor activity. Cows were milked twice daily at regular intervals. The assigned treatment was administered following am and pm milkings starting 2 days prior to challenge. Four total treatments and the challenge were administered in the left front quarter. Treatment was administered twice daily for 2 days prior to challenge. The E. coli challenge material was administered to the treated quarter on the morning of Day 0 of study. The treatment regimen was designed to evaluate efficacy for prevention of the disease. All peptides were dosed at 50 mg/10 mL per dose. Milk samples were collected for analysis at 6-hour intervals on Day 0, and at each morning's milking from Day 1 through Day 7, and on Days 11 and 14.

## RFGRFLRKIRRFRPKVTITIQ [CATH2, truncated 1-21 amino acid L-form of chicken cathelicidin 2 peptide]
[1]; LPS or MPLA (TLR 4 agonist) stimulation, FIG. 1
  proinflammatory cytokines (IL-6, TNFα) upon LPS or MPLA stimulation: dose-dependent inhibition of proinflammatory cytokines
[1]; varying concentrations of the peptide, unstimulated
  proinflammatory cytokines in healthy unstimulated bovine mammary epithelial cells: minor increase in proinflammatory cytokines
bacteria
  peptide antibacterial activity in the presence of milk: completely inhibited
Streptococcus uberis; 50 mg/10 mL, 2 doses prior to challenge or 4 doses spanning challenge, FIG. 21
  animals meeting criteria for removal from study (Kaplan Meier analysis): reduction in the number of animals meeting criteria for removal of study
Streptococcus uberis; 50 mg/10 mL, both regimens, FIG. 22
  incidence of clinical mastitis: reduced incidence of clinical mastitis
Streptococcus uberis; 4 doses at -12, 0, 12, 24 hours
  progression of clinical mastitis, 4 dose regimen vs 2 dose regimen: greater capacity to inhibit the progression of clinical mastitis
Escherichia coli; 50 mg/10 mL
  overall protection against mastitis following IMM challenge with E. coli: best protection against mastitis
Escherichia coli; 50 mg/10 mL, 4 treatments prior to challenge, vehicle 100%
  intramammary infection observed: 52.94%
Escherichia coli; 50 mg/10 mL, 4 treatments twice daily for 2 days prior to challenge, vehicle 100.0%, FIG. 9
  animals meeting criteria for clinical mastitis: 47.06%
Escherichia coli; Day 6, vehicle 0%
  cows with normal challenged quarter: 41.48%
Escherichia coli; FIGS. 13-20
  milk concentrations of BSA, milk haptoglobin, milk amyloid A, IL-1 beta, IL-6, IL-8, IL-10 and TNFα: lowest
Escherichia coli; vehicle 80.0%, FIG. 12
  cows demonstrating fever: 41.2%
Escherichia coli; vehicle 5.5 h
  duration of fever: 2.4 h
Escherichia coli; vehicle >4.0
  peak E. coli counts from the challenged quarter: < 1.5 log10 CFU/mL
Escherichia coli; vs vehicle control, FIG. 10
  bacterial load post challenge: greatest reduction in the bacterial load
Escherichia coli; vs vehicle control, FIG. 13
  BSA level in the milk: lowest level of BSA in the milk
